Measured values as given in patent US20240109893A1, “PREPARATION AND APPLICATION METHOD OF HETEROCYCLIC COMPOUNDS AS KRAS INHIBITOR” (SHANGHAI KECHOW PHARMA, INC., priority 2020, published 2024).

Test system: H358 cells
Test: Cell activity experiment: activity test of H358 cells (MTT, 5 days)
Format: cell-based
Conditions: 5 days incubation, absorbance 492 nm
Outline: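 H358 cells seeded 90 μL at 55555 cells/mL, grown 24 h, then exposed to 3-fold serial compound dilutions (final top 10000 nM, 0.5% DMSO) in triplicate for 5 days at 37° C., 5% CO2. Viability by MTT (4 h), formazan dissolved in DMSO, absorbance at 492 nm.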

Row | SMILES | IC50 (Homo sapiens, NCI-H358, 120 h) [nM] | IC50 [nM]
1 | C=CC(=O)N1CCN(c2nc(OC[C@@H]3CCCN3C)nc3cc(-c4cccc5ccc(F)c(Cl)c45)c(Cl)cc23)C[C@@H]1CC#N [Example 466] | 65 | 
2 | C=CC(=O)N1CC[C@H]2[C@H]1CN2c1nc(OCC23CCCN2CCC3)nc2cc(-c3cccc4ccc(F)c(Cl)c34)c(Cl)cc12 [Example 472, 1-((1R,5S)-6-(6-chloro-7-(8-chloro-7-fluoronaphthalen-1-yl)-2-((tetrahydro-1H-pyrrolizin-7a(5H)-yl)methoxy)quinazolin-4-yl)-2,6-diazabicyclo[3.2.0]hept-2-yl)prop-2-en-1-one] | 40 | 
3 | C=C(F)C(=O)N1CCN(c2nc(OC[C@@]34CCCN3C[C@H](F)C4)nc3c(OC4CC4)c(-c4c(C)ccc5[nH]ncc45)c(Cl)cc23)C[C@@H]1CC#N [Example 932, 2-((2S)-4-(6-chloro-8-cyclopropoxy-2-((2R,7aS)-2-fluorotetrahydro-1H-pyrrolizin-7a(5H)-ylmethoxy)-7-(5-methyl-1H-indazol-4-yl)quinazolin-4-yl)-1-(2-fluoroacryloyl)piperazin-2-yl)acetonitrile] | 0.4 | 
4 | C=CC(=O)N1CCN(c2nc(OC[C@@H]3CCCN3C)nc3c(F)c(-c4cccc5c4CC4CC54)ncc23)C[C@@H]1CC#N (single isomer, unassigned) [Example 874] |  | 429
5 | C=CC(=O)N1CCN(c2nc(OC[C@@H]3CCCN3C)nc3c(F)c(-c4cccc5c4CCCC5)c(Cl)cc23)CC1 [Example 76, 1-(4-(6-chloro-8-fluoro-2-(((S)-1-methylpyrrolidin-2-yl)methoxy)-7-(5,6,7,8-tetrahydronaphthalen-1-yl)quinazolin-4-yl)piperazin-1-yl)prop-2-en-1-one] | 160 | 
6 | C=CC(=O)N1CCN(c2nc(OCC34CCCN3CCC4)nc3cc(-c4cccc5c4CCCC5)c(Cl)cc23)C[C@@H]1CC#N [Example 470] | 50 | 
7 | C=C(F)C(=O)N1CCN(c2nc(OCC34CCCN3CCC4)nc3c(F)c(-c4cncc5c4CCCC5)ncc23)C[C@@H]1CC#N [Example 38, (S)-2-(4-(8-fluoro-2-((tetrahydro-1H-pyrrolizin-7a(5H)-yl)methoxy)-7-(5,6,7,8-tetrahydroisoquinolin-4-yl)pyridino[4,3-d]pyrimidin-4-yl)-1-(2-fluoroacryloyl)piperazin-2-yl)acetonitrile] | 36 | 
8 | C=CC(=O)N1CCN(c2nc(OC[C@@]34CCCN3C[C@H](F)C4)nc3cc(-c4cccc5cccc(Cl)c45)ccc23)C[C@@H]1CC#N [Example 83] | 3.2 | 
9 | C=C(F)C(=O)N1CC[C@@H]2[C@H]1CN2c1nc(OCC23CCCN2CCC3)nc2c(F)c(-c3ccc(F)c4c3CCCC4)ncc12 [Example 30] | 60 | 
10 | C=CC(=O)N1CCN(c2nc(OC[C@@H]3CCCN3C)nc3c(F)c(-c4cccc5c4CCCC5)c(F)cc23)C[C@@H]1CC#N [Example 429] | 15 | 
11 | C=CC(=O)N1CCN(c2nc(OCC34CCCN3CCC4)nc3cc(-c4cccc5c4CCCC5)ccc23)C[C@@H]1CC#N [Example 114, (S)-2-(1-acryloyl-4-(2-((tetrahydro-1H-pyrrolizin-7a(5H)-yl)methoxy)-7-(5,6,7,8-tetrahydronaphthalen-1-yl)quinazolin-4-yl)piperazin-2-yl)acetonitrile] | 20 | 
12 | C=C(F)C(=O)N1CCN(c2nc(OC[C@@H]3CCCN3C)nc3c(OC4CC4)c(-c4cccc5ccc(F)c(Cl)c45)c(Cl)cc23)C[C@@H]1CC#N [Example 924] | 49 | 
13 | C=CC(=O)N1CCN(c2nc(OC[C@@H]3C[C@@H](F)CN3C)nc3c(F)c(-c4cccc5c4CCCC5)ncc23)C[C@@H]1CC#N [Example 5, 2-((S)-1-acryloyl-4-(8-fluoro-2-(((2S,4R)-4-fluoro-1-methylpyrrolidin-2-yl)methoxy)-7-(5,6,7,8-tetrahydronaphthalen-1-yl)pyridino[4,3-d]pyrimidin-4-yl)piperazin-2-yl)acetonitrile] | 20 | 
14 | C=CC(=O)N1CCN(c2nc(OC[C@@H]3C[C@@H](F)CN3C)nc3cc(-c4cccc5ccc(F)c(Cl)c45)ccc23)C[C@@H]1CC#N [Example 95] | 8 | 
15 | C=C(F)C(=O)N1CCN(c2nc(OC[C@@]34CCCN3C[C@H](F)C4)nc3c(F)c(-c4cccc5c4[C@@H]4C[C@@H]4C5)ncc23)C[C@@H]1CC#N [Example 72] | 8 | 
16 | C=CC(=O)N1CCN(c2nc(OC[C@@]34CCCN3C[C@H](F)C4)nc3c(F)c(-c4cccc5c4[C@@H]4C[C@@H]4C5)ncc23)C[C@@H]1CC#N [Example 71] | 0.2 | 
17 | C=C(F)C(=O)N1CC[C@@H]2[C@H]1CN2c1nc(OC[C@@H]2CCCN2C)nc2c(F)c(-c3ccc(F)c4c3CCCC4)ncc12 [Example 26] | 40 | 
18 | C=CC(=O)N1CCN(c2nc(OC[C@@]34CCCN3C[C@H](F)C4)nc3c(F)c(-c4cccc5c4CC4CC54)ncc23)C[C@@H]1CC#N (single isomer, unassigned) [Example 878] | 236 | 

Row | SMILES | IC50 (Homo sapiens, NCI-H358, 120 h) [nM] | IC50 [nM]
19 | C=C(F)C(=O)N1CC[C@@H]2[C@H]1CN2c1nc(OC[C@@H]2CCCN2C)nc2c(F)c(-c3cncc4c3CCCC4)ncc12 [Example 42, 2-fluoro-1-(((1R,5R)-6-(8-fluoro-2-(((S)-1-methylpyrrolidin-2-yl)methoxy)-7]-(5,6,7,8-tetrahydroisoquinolin-4-yl)pyridino[4,3-d]pyrimidin-4-yl)-2,6-diazabicyclo[3.2.0]hept-2-yl)prop-2-en-1-one] | 35 | 
20 | C=CC(=O)N1CCN(c2nc(OCC34CCCN3CCC4)nc3c(F)c(-c4cccc5ccc(F)c(Cl)c45)ccc23)C[C@@H]1CC#N [Example 365, (S)-2-(1-acryloyl-4-(7-(8-chloro-7-fluoronaphthalen-1-yl)-8-fluoro-2-((tetrahydro-1H-pyrrolizin-7a(5H)-yl)methoxy)quinazolin-4-yl)piperazin-2-yl)acetonitrile] | 2 | 
21 | C=C(F)C(=O)N1CCN(c2nc(OC[C@@H]3CCCN3C)nc3cc(-c4cncc5cccc(Cl)c45)ccc23)C[C@@H]1CC#N [Example 127] | 72 | 
22 | C=CC(=O)N1CCN(c2nc(OCC34CCCN3CCC4)nc3c(F)c(-c4cccc5c4[C@H]4C[C@H]4C5)ncc23)C[C@@H]1CC#N [Example 63, 2-((S)-1-acryloyl-4-(8-fluoro-2-((tetrahydro-1H-pyrrolizin-7a(5H)-yl)methoxy)-7-((1aS,6aS)-1,1a,6,6a-tetrahydrocyclopropa[a]inden-2-yl)pyridino[4,3-d]pyrimidin-4-yl)piperazin-2-yl)acetonitrile] | 2.2 | 
23 | C=CC(=O)N1CCN(c2nc(OC[C@@]34CCCN3C[C@H](F)C4)nc3c(F)c(-c4cccc5c4CCCC5)ncc23)C[C@@H]1CC#N [Example 7, 2-((S)-1-acryloyl-4-(8-fluoro-2-(((2R,7aS)-2-fluorotetrahydro-1H-pyrrolizin-7a(5H)-yl)methoxy)-7-(5,6,7,8-tetrahydronaphthalen-1-yl)pyridino[4,3-d]pyrimidin-4-yl)piperazin-2-yl)acetonitrile] | 0.07 | 
24 | C=CC(=O)N1CCN(c2nc(OCC34CCCN3CCC4)nc3nc(-c4cccc5cccc(Cl)c45)ccc23)C[C@@H]1CC#N [Example 258, (S)-2-(1-acryloyl-4-(7-(8-chloronaphthalen-1-yl)-2-((tetrahydro-1H-pyrrolizin-7a(5H)-yl)methoxy)pyridino[2,3-d]pyrimidin-4-yl)piperazin-2-yl)acetonitrile] | 15 | 
25 | C=CC(=O)N1CCN(c2nc(OC[C@@H]3C[C@@H](F)CN3C)nc3c(F)c(-c4cccc5c4CCCC5)ccc23)C[C@@H]1CC#N [Example 360] | 10 | 
26 | C=CC(=O)N1CC[C@@H]2[C@H]1CN2c1nc(OC[C@@]23CCCN2C[C@H](F)C3)nc2c(F)c(-c3cccc4c3CCCC4)ncc12 [Example 15] | 3 | 
27 | C=CC(=O)N1CCN(c2nc(OC[C@@]34CCCN3C[C@H](F)C4)nc3c(F)c(-c4cncc5c4CCCC5)ncc23)C[C@@H]1CC#N [Example 39] | 8 | 
28 | C=CC(=O)N1CCN(c2nc(OC[C@@H]3C[C@@H](F)CN3C)nc3cc(-c4cccc5c4CCCC5)ccc23)C[C@@H]1CC#N [Example 112] | 38 | 
29 | C=C(F)C(=O)N1CCN(c2nc(OCC34CCCN3CCC4)nc3cc(-c4cccc5cccc(Cl)c45)ccc23)C[C@@H]1CC#N [Example 82, (S)-2-(4-(7-(8-chloronaphthalen-1-yl)-2-((tetrahydro-1H-pyrrolizin-7a(5H)-yl)methoxy)quinazolin-4-yl)-1-(2-fluoroacryloyl)piperazin-2-yl)acetonitrile] | 12 | 
30 | C=CC(=O)N1CC[C@@H]2[C@H]1CN2c1nc(OC[C@@]23CCCN2C[C@H](F)C3)nc2c(F)c(-c3cncc4c3CCCC4)ncc12 [Example 47] | 6.5 | 
31 | C=CC(=O)N1CCN(c2nc(OCC34CCCN3C[C@H](F)C4)nc3c(F)c(-c4cncc5cccc(Cl)c45)ccc23)C[C@@H]1CC#N (stereo partly drawn) [Example 164, 2-((2S)-1-acryloyl-4-(7-(5-chloroisoquinolin-4-yl)-8-fluoro-2-((((2R,7aS)-2-fluorotetrahydro-1H-pyrrolizin-7a(5H))-yl)methoxy)quinazolin-4-yl)piperazin-2-yl)acetonitrile] | 1.5 | 
32 | C=CC(=O)N1CCN(c2nc(OC[C@@H]3C[C@@H](F)CN3C)nc3c(F)c(-c4ccc(F)c5c4CCCC5)ncc23)C[C@@H]1CC#N [Example 19] | 35 | 
33 | C=C(F)C(=O)N1CCN(c2nc(OC[C@@H]3C[C@@H](F)CN3C)nc3c(F)c(-c4ccc(F)c5c4CCCC5)ncc23)C[C@@H]1CC#N [Example 20] | 120 | 
34 | C=C(F)C(=O)N1CCN(c2nc(OC[C@@]34CCCN3C[C@H](F)C4)nc3c(F)c(-c4cccc5c4CC4CC54)ncc23)C[C@@H]1CC#N (single isomer, unassigned) [Example 880] |  | 433
35 | C=CC(=O)N1CCN(c2nc(OCC3(CN4CCCC4)CC3)nc3c(F)c(-c4cccc5cccc(Cl)c45)ccc23)C[C@@H]1CC#N [Example 855, (S)-2-(1-acryloyl-4-(7-(8-chloronaphthalen-1-yl)-8-fluoro-2-((1-(pyrrolidin-1-ylmethyl)cyclopropyl)methoxy)quinazolin-4-yl)piperazin-2-yl)acetonitrile] | 5.1 | 
